Data reported in ChEMBL document CHEMBL1201862, “PubChem BioAssay data set” (2004).
Activity calls are given as the source filed them.

What was measured:
[1] = molecular target: T1, Heat shock factor protein 1 (Mus musculus, UniProt P38532); assay: enhancement of HSF1-driven luciferase signal – cell-based, NIH3T3, luminescence, dose retest, confirmation (AID 435004); type: functional;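 also: stress induced by proteasome inhibitor MG132 added 30 min after compound; luciferase reporter driven by HSF1 response element in NIH3T3 cells; actives raise luminescence as potentiators of the MG132 stress response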
T1 sequence (P38532 whole entry): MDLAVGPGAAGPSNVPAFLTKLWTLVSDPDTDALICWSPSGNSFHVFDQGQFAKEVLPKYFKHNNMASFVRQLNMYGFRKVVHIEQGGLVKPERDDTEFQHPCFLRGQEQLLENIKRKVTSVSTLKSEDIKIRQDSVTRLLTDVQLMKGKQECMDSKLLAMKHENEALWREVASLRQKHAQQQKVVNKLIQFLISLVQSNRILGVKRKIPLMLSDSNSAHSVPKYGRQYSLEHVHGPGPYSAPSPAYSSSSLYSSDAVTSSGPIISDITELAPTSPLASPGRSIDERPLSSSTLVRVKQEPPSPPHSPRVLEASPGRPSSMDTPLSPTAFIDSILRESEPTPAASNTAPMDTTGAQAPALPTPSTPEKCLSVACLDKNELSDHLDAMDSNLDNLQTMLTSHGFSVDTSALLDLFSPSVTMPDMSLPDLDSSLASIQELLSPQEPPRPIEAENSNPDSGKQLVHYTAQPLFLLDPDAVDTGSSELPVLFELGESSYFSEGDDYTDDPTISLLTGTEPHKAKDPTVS

[2] = Intein inhibitors as potential Tuberculosis drugs, a cytotoxicity screen. [Related pubchem assays (depositor defined):AID2221, AID2223, AID434968, AID435010, AID449749, AID449750, AID489010]; type: functional
[3] = molecular target: T2, Replicative DNA helicase DnaB (Mycobacterium tuberculosis, UniProt P9WMR3); assay: DnaB intein splicing inhibitors, dose response, biochemical, cell-free fluorescence (AID 449749); type: functional
T2 sequence (P9WMR3 whole entry): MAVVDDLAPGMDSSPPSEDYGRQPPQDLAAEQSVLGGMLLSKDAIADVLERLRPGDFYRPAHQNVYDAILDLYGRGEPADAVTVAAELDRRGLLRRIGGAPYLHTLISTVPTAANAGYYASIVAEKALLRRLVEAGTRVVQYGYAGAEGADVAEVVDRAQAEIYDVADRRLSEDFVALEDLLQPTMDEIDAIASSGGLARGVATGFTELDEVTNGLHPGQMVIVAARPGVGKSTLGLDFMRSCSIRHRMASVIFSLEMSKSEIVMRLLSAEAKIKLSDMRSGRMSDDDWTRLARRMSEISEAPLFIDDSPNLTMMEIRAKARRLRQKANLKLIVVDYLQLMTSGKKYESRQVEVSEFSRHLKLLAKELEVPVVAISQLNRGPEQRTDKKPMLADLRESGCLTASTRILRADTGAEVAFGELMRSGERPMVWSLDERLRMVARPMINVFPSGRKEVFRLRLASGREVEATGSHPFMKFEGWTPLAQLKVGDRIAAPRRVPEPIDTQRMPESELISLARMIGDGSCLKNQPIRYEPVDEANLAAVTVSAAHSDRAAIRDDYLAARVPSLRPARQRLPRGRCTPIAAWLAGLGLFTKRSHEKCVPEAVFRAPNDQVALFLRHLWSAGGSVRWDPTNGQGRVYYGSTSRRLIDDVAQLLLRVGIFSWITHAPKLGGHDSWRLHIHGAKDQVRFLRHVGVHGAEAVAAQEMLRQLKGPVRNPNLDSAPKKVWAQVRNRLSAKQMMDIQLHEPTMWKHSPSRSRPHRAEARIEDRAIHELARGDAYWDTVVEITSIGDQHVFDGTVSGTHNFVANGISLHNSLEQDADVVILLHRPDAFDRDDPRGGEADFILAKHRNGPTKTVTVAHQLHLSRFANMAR

[4] = molecular target: T3, Protein RecA (Mycobacterium tuberculosis, UniProt P9WHJ3); assay: Fluorescence Cell-Free Homogeneous Dose Retest to Identify Inhibitors of RecA-Intein Splicing Activity. [Related pubchem assays (depositor defined):AID2097, AID2223, AID489010, AID492950]; type: functional
T3 sequence (P9WHJ3 whole entry): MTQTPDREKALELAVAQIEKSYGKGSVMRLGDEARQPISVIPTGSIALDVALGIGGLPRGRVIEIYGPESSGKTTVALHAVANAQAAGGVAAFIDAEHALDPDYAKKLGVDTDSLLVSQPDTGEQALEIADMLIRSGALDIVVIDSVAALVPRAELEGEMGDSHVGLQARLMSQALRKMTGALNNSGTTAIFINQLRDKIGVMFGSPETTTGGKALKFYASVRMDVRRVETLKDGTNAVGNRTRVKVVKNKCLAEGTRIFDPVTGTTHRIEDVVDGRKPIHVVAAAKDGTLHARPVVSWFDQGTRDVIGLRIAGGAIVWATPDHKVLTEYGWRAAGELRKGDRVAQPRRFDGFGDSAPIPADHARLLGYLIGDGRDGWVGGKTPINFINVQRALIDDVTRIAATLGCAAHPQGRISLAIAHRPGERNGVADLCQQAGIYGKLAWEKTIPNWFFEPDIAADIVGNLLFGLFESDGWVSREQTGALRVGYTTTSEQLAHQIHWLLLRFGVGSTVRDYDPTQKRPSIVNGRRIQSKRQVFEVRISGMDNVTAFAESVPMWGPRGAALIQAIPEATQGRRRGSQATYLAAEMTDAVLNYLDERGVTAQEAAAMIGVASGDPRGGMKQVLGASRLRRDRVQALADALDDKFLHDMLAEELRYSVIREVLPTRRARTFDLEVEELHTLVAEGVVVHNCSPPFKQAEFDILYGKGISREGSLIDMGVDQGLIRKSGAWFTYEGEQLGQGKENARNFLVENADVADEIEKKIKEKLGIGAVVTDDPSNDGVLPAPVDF

[5] = test system: INS1; assay: INS-1E survival protection against cytokine death – cell-based, luminescence, retest, dose response (AID 449756); type: functional; conditions: Rattus norvegicus;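 also: cell death triggered by IL-1 beta plus TNF-alpha plus IFN-gamma mixture; protective hits raise ATP signal compared with cytokine alone wells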
[6] = molecular target: T4, Histone-lysine N-methyltransferase NSD2 (Homo sapiens, UniProt O96028); type: biochemical
T4 sequence (O96028 whole entry): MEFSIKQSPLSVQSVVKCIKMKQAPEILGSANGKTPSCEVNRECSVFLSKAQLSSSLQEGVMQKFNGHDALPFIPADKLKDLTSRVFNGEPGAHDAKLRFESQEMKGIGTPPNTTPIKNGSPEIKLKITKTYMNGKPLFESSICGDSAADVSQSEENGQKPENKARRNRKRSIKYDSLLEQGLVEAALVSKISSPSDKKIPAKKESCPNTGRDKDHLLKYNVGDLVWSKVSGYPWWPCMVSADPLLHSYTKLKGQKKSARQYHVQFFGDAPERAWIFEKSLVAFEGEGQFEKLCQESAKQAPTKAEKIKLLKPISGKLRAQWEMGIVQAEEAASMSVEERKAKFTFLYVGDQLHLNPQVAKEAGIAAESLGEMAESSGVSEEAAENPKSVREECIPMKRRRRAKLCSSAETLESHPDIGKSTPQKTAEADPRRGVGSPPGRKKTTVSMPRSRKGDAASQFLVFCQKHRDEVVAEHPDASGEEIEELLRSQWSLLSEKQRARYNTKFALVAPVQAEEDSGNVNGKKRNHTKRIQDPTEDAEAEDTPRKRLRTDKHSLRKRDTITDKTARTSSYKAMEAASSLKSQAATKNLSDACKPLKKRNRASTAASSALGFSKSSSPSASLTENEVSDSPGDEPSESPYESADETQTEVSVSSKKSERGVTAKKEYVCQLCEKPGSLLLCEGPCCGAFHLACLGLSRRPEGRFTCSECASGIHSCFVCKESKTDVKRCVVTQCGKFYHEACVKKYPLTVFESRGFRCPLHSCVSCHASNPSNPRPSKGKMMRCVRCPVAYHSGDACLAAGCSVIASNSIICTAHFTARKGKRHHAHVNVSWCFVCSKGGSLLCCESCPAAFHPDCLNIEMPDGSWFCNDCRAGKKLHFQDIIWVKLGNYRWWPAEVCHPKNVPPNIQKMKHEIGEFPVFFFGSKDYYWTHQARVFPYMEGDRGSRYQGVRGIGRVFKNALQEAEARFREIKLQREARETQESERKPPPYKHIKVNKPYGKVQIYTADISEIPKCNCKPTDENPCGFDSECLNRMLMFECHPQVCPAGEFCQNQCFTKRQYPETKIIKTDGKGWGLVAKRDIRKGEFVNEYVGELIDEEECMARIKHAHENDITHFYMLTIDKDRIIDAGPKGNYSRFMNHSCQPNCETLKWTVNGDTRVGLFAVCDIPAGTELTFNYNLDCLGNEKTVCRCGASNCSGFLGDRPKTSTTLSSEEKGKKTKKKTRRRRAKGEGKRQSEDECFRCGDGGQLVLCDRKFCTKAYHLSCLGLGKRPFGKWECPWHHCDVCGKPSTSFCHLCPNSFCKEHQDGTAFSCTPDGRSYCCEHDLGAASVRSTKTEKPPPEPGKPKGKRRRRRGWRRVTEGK

[7] = NIH-3T3 fibroblast cytotoxicity, dose response, cytotoxicity control, cell-based, fluorescence, Alamar Blue, secondary assay (AID 2327); type: functional;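 also: NIH-3T3 mouse fibroblasts cultured with fluconazole at 8 µg/mL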
[8] = test system: Streptococcus sp. 'group A'; assay: Streptococcus pyogenes SK(-)GAS viability under kanamycin – luminescence, BacTiterGlo, confirmation, counter-screen for streptokinase expression inhibitor project, dose response (AID 1900); type: functional, organism-based
[9] = fluconazole-exposed Candida albicans growth modulators – fluorescence, retest, confirmation (AID 2467); type: functional, cell-based
[10] = test system: Streptococcus; assay: GAS UMAA2166 growth inhibition – luminescence, BacTiterGlo, counter-screen for streptokinase expression inhibitor project, dose response (AID 1915); type: functional, organism-based;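 also: potency for reduction of bacterial viability or growth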
[11] = molecular target: T5, Hexokinase HKDC1 (Homo sapiens, UniProt Q2TB90); assay: activation of HKDC1 glucose phosphorylation – biochemical, W721R variant, dose response (AID 504730); type: functional
T5 sequence (Q2TB90 whole entry): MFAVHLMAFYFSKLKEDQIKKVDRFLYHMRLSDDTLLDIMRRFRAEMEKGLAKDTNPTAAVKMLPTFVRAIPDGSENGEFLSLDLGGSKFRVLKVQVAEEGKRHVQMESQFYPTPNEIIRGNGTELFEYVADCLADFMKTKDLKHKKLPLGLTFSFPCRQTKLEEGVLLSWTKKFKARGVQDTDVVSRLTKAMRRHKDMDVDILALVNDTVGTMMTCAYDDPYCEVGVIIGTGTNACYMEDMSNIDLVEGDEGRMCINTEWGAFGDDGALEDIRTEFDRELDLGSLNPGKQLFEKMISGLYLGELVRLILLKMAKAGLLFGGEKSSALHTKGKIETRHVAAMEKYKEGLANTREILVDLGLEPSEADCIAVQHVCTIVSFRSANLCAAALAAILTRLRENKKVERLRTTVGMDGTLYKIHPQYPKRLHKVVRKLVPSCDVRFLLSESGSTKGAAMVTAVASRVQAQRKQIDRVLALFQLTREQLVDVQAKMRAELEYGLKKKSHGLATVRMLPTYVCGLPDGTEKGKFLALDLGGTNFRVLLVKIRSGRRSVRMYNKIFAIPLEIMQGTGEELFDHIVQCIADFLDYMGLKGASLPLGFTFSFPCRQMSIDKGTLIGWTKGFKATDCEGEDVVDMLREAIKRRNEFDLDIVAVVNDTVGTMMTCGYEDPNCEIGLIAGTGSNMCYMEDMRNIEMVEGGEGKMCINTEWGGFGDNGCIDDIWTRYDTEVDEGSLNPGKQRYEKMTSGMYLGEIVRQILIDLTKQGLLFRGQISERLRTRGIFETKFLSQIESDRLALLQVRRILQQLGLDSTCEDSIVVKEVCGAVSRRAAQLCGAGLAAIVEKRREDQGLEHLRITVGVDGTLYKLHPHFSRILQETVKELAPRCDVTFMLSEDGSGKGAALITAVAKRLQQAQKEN

[12] = molecular target: Hexokinase-1 (Homo sapiens, UniProt P19367); assay: HK1 enzyme activation by HKDC1 hits – biochemical, selectivity assay for HKDC1 activator project, dose response (AID 504762); type: functional
Sequence of Hexokinase-1 (P19367 whole entry): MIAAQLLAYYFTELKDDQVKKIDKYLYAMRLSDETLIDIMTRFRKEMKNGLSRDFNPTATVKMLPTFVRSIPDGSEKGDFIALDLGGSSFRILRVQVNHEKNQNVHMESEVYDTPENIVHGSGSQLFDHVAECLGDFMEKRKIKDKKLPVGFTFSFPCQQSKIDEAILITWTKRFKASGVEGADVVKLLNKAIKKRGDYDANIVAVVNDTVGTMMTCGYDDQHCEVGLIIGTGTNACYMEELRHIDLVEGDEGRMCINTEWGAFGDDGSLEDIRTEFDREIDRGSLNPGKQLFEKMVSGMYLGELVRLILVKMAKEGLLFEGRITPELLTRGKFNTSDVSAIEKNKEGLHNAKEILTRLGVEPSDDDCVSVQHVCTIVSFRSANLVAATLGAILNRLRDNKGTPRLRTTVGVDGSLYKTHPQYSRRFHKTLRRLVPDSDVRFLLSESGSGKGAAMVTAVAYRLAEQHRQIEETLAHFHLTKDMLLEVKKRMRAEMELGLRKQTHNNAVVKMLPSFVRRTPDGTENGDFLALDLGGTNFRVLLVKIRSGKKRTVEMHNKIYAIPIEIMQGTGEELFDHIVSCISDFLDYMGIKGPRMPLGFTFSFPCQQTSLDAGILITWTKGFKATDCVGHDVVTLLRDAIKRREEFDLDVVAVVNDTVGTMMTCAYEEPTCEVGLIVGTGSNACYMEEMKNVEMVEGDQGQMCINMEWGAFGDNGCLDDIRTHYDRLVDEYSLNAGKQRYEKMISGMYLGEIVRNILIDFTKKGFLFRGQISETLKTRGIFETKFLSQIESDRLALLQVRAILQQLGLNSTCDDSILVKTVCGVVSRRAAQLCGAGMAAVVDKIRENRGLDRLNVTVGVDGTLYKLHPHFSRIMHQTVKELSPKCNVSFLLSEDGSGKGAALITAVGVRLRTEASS

[13] = molecular target: T6, Probable nicotinate-nucleotide adenylyltransferase (Staphylococcus aureus (strain N315), UniProt P65502); type: functional, Staphylococcus aureus subsp. aureus N315;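 as to IC50 Mean: confirmatory dose-response retesting of NadD inhibitor hits first found in an ultra-high-throughput screen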
T6 sequence (P65502 whole entry): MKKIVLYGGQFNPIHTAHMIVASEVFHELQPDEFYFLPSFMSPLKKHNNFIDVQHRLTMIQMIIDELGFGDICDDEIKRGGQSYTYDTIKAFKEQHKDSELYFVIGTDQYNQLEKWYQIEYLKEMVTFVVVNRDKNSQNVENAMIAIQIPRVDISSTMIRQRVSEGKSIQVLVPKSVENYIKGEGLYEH

[14] = molecular target: T6, Probable nicotinate-nucleotide adenylyltransferase; type: functional, Staphylococcus aureus subsp. aureus N315; conditions: read-out: IC50_Mean
[15] = blockers of HIV-1 envelope-mediated cell-cell fusion – cherry-pick, dose response (AID 652057); type: functional, cell-based
[16] = blockers of HIV-1 ZM109 envelope-driven cell-cell fusion – HeLa effector, CEM target cells, luciferase, cherry-pick, dose response (AID 652058); type: functional, cell-based;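 also: luciferase signal from HIV-1 Env mediated cell-cell fusion of effector and target cells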
[17] = HIV-1 AD8 envelope cell-cell fusion blockers – cherry-pick, dose response (AID 652062); type: functional, cell-based;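 also: luciferase signal from cell-cell fusion driven by HIV-1 clade B AD8 Env; potency is for inhibitors of fusion seen as a drop in luminescence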
[18] = inhibition of Env-driven cell fusion – HIV entry, plate reader, dry powder, dose response (AID 687023); type: functional, cell-based
[19] = viability loss in CEM21 cells – cell-based, plate reader, dry powder, cytotoxicity control, dose response (AID 687026); type: functional
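For CC50 in this document: cells exposed to compound for 72 hours before luminescence readout.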

What does the source list for `CN(C1=C(NC(=O)c2ccccc2)C(=O)c2ccccc2C1=O)C1CCS(=O)(=O)C1` (centres undefined)?
EC50 [1]: 30.9 µM (active); CC50 [2]: 19.2 µM (active); AC50 [3]: 1.7 µM (active); EC50 [4]: 0.108 µM (active); AC50 [5]: 3 µM (active); AC50 [6]: 4.69 µM (active)

For `COc1ccc(-c2cc(C(=O)NNC(=S)NC(=O)c3c(-c4ccccc4)noc3C)[nH]n2)cc1`, which EC50 [7] is on record?
Its EC50 is 53.9 µM (active).

What about the EC50 [8] of the same compound?
Its EC50 is 0.263 µM (active).

And the EC50 [9]?
The EC50 was > 38 µM (not active).

And the EC50 [10]?
Its EC50 is 4.58 µM (active).

What about the EC50 [11] of the same compound?
Its EC50 is 3.62 µM (active).

What about the EC50 [12] of the same compound?
The EC50 was > 80 µM (inactive).

What about the IC50 [13] of the same compound?
The IC50 was 6.51 µM (active).

What about the IC50 [14] of the same compound?
Its IC50 is 26.1 µM (active).

And the AC50 [15]?
The AC50 was 12 µM (active).

What about the AC50 [16] of the same compound?
The AC50 was 2.61 µM (active).

What about the AC50 [17] of the same compound?
Its AC50 is 4.51 µM (active).

And the AC50 [18]?
The AC50 was 2.1 µM (active).

And the AC50 [19]?
Its AC50 is > 70 µM (inactive).
